Assay results reported in patent US11021481B2, “Substituted isoindolin-1-ones and 2,3-dihydro-1h-pyrrolo[3,4-c]pyridin-1-ones as HPK1 antagonists” (Nimbus Saturn, Inc., priority 2019, dated 2021).

Biological target: HPK1 (Homo sapiens (Human), UniProt Q92918)
Experiment: HPK1 biochemical enzyme assay (microfluidic mobility shift assay)
Conditions: 1.5 nM HPK1, ATP 1 mM final, 30 min preincubation, 60 min at RT, Caliper EZ Reader; read-out: HPK1 1000UMATP caliper IC50
Outline: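 Mobility shift readout of HPK1 activity after a 60 min RT reaction with 1 mM ATP, 1 μM substrate and 5 mM MgCl2. Enzyme/substrate mix was first exposed to compounds for 30 min, using ten-point curves topping at 3 μM final.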

Sequence of HPK1 (Q92918 whole entry): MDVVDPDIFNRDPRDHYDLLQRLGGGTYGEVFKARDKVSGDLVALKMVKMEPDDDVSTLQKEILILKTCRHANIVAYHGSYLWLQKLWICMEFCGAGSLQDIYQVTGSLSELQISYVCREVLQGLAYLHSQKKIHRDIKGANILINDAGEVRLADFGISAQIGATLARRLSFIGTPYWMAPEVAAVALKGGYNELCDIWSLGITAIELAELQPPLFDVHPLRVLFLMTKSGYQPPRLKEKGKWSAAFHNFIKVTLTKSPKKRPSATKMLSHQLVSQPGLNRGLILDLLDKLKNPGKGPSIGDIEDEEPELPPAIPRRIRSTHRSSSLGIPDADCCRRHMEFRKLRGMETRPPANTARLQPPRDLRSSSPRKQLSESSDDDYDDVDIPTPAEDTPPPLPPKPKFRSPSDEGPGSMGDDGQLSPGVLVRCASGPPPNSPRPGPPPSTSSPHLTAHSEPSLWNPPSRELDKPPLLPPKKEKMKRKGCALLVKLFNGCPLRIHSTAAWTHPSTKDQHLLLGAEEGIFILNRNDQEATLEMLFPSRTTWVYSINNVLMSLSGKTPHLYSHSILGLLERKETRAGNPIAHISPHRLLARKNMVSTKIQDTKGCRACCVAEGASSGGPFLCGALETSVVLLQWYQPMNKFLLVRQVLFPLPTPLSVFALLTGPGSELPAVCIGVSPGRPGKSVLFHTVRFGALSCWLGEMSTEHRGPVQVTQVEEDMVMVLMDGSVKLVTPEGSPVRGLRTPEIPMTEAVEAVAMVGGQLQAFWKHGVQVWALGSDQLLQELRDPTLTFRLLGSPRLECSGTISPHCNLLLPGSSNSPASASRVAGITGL

Row | SMILES | IC50
1 | CN1CCN(CC2(O)CCN(c3ccc(Nc4ccc(-c5cnc6cnccn56)c5c4C(=O)NC5)nc3)CC2)CC1 [I-412, 7-((5-(4-hydroxy-4-((4-methylpiperazin-1-yl)methyl)piper-idin-1-yl)pyridin-2-yl)amino)-4-(imidazo[1,2-a]pyrazin-3-yl)isoindolin-1-one] | < 100 nM
2 | Cn1ccc2c(-c3ncc(Nc4ccc5c(n4)CNCC5)c4c3CNC4=O)ccnc21 [I-413] | > 1000 nM
3 | COC[C@H]1CN(c2ccc(Nc3cnc(-c4ccnc5c4ccn5C)c4c3C(=O)NC4)nc2)CC[C@@H]1O [I-414] | < 100 nM
4 | Cn1ccc2c(-c3ncc(Nc4cccc(C5CNC5)n4)c4c3CNC4=O)ccnc21 [I-415, 7-((6-(azetidin-3-yl)pyridin-2-yl)amino)-4-(1-methyl-1H-pyrrolo[2.3-b]pyridin-4-yl)-2,3-dihydro-1H-pyrrolo[3,4-c]pyridin-1-one] | < 100 nM
5 | Cn1ccc2c(-c3ncc(Nc4ccc(N5CC[C@@H](F)[C@H](O)C5)cn4)c4c3CNC4=O)ccnc21 [I-416, 7-((5-((3R,4R)-4-fluoro-3-hydroxy-piperidin-1-yl)pyridin-2-yl)amino)-4-(1-methyl-1H-pyrrolo[2,3-b]pyridin-4-yl)-2,3-dihydro-1H-pyrrolo[3,4-c]pyridin-1-one] | < 100 nM
6 | Cn1ccc2c(-c3ncc(Nc4ccc(N5CC[C@H](F)[C@@H](O)C5)cn4)c4c3CNC4=O)ccnc21 [I-417, 7-((5-((3S,4S)-4-fluoro-3-hydroxy-piperidin-1-yl)pyridin-2-yl)amino)-4-(1-methyl-1H-pyrrolo[2,3-b]pyridin-4-yl)-2,3-dihydro-1H-pyrrolo[3,4-c]pyridin-1-one] | < 100 nM
7 | CN1CCc2ccc(Nc3cnc(-c4ccnc5c4ccn5C)c4c3C(=O)NC4)nc2C1 [I-418, 4-(1-methyl-1H-pyrrolo[2,3-b]pyridin-4-yl)-7-((7-methyl-5,6,7,8-tetrahydro-1,7-naphthyridin-2-yl)amino)-2,3-dihydro-1H-pyrrolo[3,4-c]pyridin-1-one] | > 1000 nM
8 | CN1CCC[C@H](c2cccc(Nc3cnc(-c4ccnc5c4ccn5C)c4c3C(=O)NC4)n2)C1 [I-419, (S)-4-(1-methyl-1H-pyrrolo[2,3-b]pyridin-4-yl)-7-((6-(1-methylpiperidin-3-yl)pyridin-2-yl)amino)-2.3-dihydro-1H-pyrrolo[3,4-c]pyridin-1-one] | > 1000 nM
9 | CN1CCC[C@@H](c2cccc(Nc3cnc(-c4ccnc5c4ccn5C)c4c3C(=O)NC4)n2)C1 [I-420, (R]-4-(1-methyl-1H-pyrrolo[2,3-b]pyridin-4-yl)-7-((6-(1-methylpiperidin-3-yl)pyridin-2-yl)amino)-2.3-dihydro-1H-pyrrolo[3,4-c]pyridin-1-one] | < 100 nM
10 | COC[C@H]1CN(c2ccc(Nc3ccc(-c4cnc5cc(F)ccn45)c4c3C(=O)NC4)nc2)CCO1 [I-421, (R)-4-(7-fluoroimidazo [1,2-a]pyridin-3-yl)-7-((5-(2-(methoxymeth-yl)morpholino)pyridin-2-yl)amino)isoin-dolin-1-one] | < 100 nM
11 | Cn1cc2c(-c3ccc(Nc4ccc(N5CCC(O)CC5)cn4)c4c3CNC4=O)cnc-2cn1 [I-422, 7-((5-(4-hydroxy-piperidin-1-yl)pyridin-2-yl)amino)-4-(5-methyl-5H-pyrrolo[2,3-d]pyridazin-3-yl)isoindolin-1-one] | 100 to 1000 nM
12 | COC[C@H]1CN(c2ccc(Nc3cnc(-c4ccnc5c4ccn5C)c4c3C(=O)NC4)nc2)CC[C@H]1O [I-423, 7-((5-((3R,4R)-4-hydroxy-3-(methoxymeth-yl)piperidin-1-yl)pyridin-2-yl)amino)-4-(1-methyl-l H-4-pyrrolo[2,3-b]pyridin-4-yl)-2,3-dihydro-1H-pyrrolo[3,4-c]pyridin-1-one] | < 100 nM
13 | Cn1ccc2c(-c3ccc(Nc4ncc(N5CCC(O)CC5)cc4F)c4c3CNC4=O)ccnc21 [I-424, 7-((3-fluoro-5-(4-hydroxy-piperidin-1-yl)pyridin-2-yl)amino)-4-(1-methyl-1H-pyrrolo[2,3-b]pyridin-4-yl)isoindolin-1-one] | < 100 nM
